According to article PMC9090415, “Discovery of small molecule inhibitors of Plasmodium falciparum apicoplast DNA polymerase” (Journal of Enzyme Inhibition and Medicinal Chemistry, 2022):

Molecular target: P. falciparum apicoplast DNA polymerase (Pf-apPOL) (Plasmodium falciparum, UniProt Q8ILY1)
Assay: Fluorescence-based high-throughput DNA polymerase assay (molecular beacon), primary screen and dose-response
Type: biochemical
Protocol: The HT assay employs a molecular beacon, a stem-loop DNA template with a Cy3 dye and the Black Hole Quencher on the 3′ and 5′ ends of the DNA, respectively. Pf-apPOL concentration is based on a calculated absorptivity of ε280 = 56750 M^−1 cm^−1. Reactions were carried out at 25 °C, using Corning 3575 […] (well-volume, 20 µL). Assays testing for compound inhibition composed of reaction buffer (pH 7.9 in 50 mM potassium acetate, 20 mM Tris-acetate and 10 mM magnesium acetate), Pf-apPOL (20 nM), DNA substrate (20 nM), dNTPs (6 µM), and compound (10 µM in DMSO). The DNA and nucleotide substrates (dNTPs) were at concentrations of 20 nM and 6 µM, respectively, in the assay. Pf-apPOL was incubated in the reaction buffer with dNTPs and the compound of interest (10 µM, in the assay) at 25 °C for 10 min. The DNA substrate was then added and the reaction was allowed to proceed for 90 min at 25 °C.
Each assay plate contained 16 negative controls (no Pf-apPOL, DMSO present) and 16 positive controls (Pf-apPOL present, no DMSO). The fluorescence of each well was determined using a BioTek Synergy Neo fluorescence plate reader using excitation and emission wavelengths of 555 and 570 nm, respectively.
In the above, Min is the average of fluorescence emission of the negative controls (substrate only), Max the average fluorescence emission from the positive controls (enzyme + substrate), and Test the emission from the assays in the presence of compounds (enzyme + compound + substrates). […] […] The IC50 of each compound was determined using Equation (2): (2) IC50= Vmax/(1+ (I/IC50)^n)
In the above, n measures cooperativity, with n > 1 indicating synergistic binding of more than a single molecule of the compound.
To identify apPOL inhibitors we utilised our previously developed high-throughput DNA polymerase assay. The HT assay is based on a molecular beacon DNA template that forms a stem-loop with a Cy3 dye and the Black Hole Quencher on the 3′ and 5′ ends of the DNA, respectively. DNA polymerase activity extends an annealed primer through the stem region, displacing the fluorophore from the quencher, thereby increasing its fluorescence (Figure 1(A)). The assay accurately recapitulates the kinetic behaviour of apPOL, as measured through more conventional low-throughput gel-based assays. The Z′ factor for the assay described here was 0.9 across all plates (data not shown).
Figure 1. High-throughput screening. (A) The fluorescent-based DNA polymerase assay used to screen the compound libraries. The DNA template strand is a hairpin loop with a primer annealed to the loop. The 3’ end of the primer is 11 bases away from the 6 bp duplex. Strand displacement activity of the DNA polymerase separates the Cy3 dye from the Black hole quencher leading to an increase in fluorescent signal. (B) The high-throughput assay workflow. The DNA polymerase is incubated with […] compound for 10 min prior to addition of the hairpin substrate. The reaction is quenched at 3 different time points and the fluorescent signal is measured and % inhibition is determined using the provided equation.

[1] = primary screen value of the 186 hits; unit not given; 90 min, 10 µM

P. falciparum apicoplast DNA polymerase (Pf-apPOL), sequence (Q8ILY1 entry or part of it): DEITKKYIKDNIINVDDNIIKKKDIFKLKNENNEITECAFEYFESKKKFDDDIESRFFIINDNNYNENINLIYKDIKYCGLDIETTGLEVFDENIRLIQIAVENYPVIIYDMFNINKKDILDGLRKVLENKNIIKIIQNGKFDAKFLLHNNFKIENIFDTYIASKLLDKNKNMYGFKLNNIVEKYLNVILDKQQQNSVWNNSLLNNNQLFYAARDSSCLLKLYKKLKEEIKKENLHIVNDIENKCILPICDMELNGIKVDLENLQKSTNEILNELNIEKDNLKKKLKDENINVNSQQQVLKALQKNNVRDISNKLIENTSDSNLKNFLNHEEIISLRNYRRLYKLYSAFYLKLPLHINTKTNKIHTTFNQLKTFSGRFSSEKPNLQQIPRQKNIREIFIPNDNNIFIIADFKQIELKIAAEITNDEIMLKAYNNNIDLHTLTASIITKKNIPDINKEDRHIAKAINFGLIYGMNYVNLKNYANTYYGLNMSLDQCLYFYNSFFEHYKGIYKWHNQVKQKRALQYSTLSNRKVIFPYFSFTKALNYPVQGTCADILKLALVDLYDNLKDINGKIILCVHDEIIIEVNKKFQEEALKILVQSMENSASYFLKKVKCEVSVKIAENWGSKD

## O=C(O)c1cc([N+](=O)[O-])c(N2CCN(c3cccc(C(F)(F)F)c3)CC2)c([N+](=O)[O-])c1 [KU0076747]
DRC-1; concentration 2.5; 10'
  % inhibition Apo pol 10': 9.057%
DRC-1; concentration 2.5; 90'
  % inhibition Apol 90': 2.381%
DRC-1; concentration 2.5; 180'
  % inhibition apPOL 180': -1.314%
DRC-1; concentration 5; 10'
  % inhibition Apo pol 10': 24.3374%
DRC-1; concentration 5; 90'
  % inhibition Apol 90': 17.3572%
DRC-1; concentration 5; 180'
  % inhibition apPOL 180': 9.492%
DRC-1; concentration 10; 10'
  % inhibition Apo pol 10': 20.6042%
DRC-1; concentration 10; 90'
  % inhibition Apol 90': 12.0526%
DRC-1; concentration 10; 180'
  % inhibition apPOL 180': 7.5333%
DRC-1; concentration 20; 10'
  % inhibition Apo pol 10': 54.2328%
DRC-1; concentration 20; 90'
  % inhibition Apol 90': 47.5478%
DRC-1; concentration 20; 180'
  % inhibition apPOL 180': 35.8091%
DRC-1; concentration 40; 10'
  % inhibition Apo pol 10': 87.2694%
DRC-1; concentration 40; 90'
  % inhibition Apol 90': 81.5158%
DRC-1; concentration 40; 180'
  % inhibition apPOL 180': 74.4081%
DRC-1; concentration 80 (unit not given); 10'
  % inhibition Apo pol 10': 98.3006%
DRC-1; concentration 80; 90'
  % inhibition Apol 90': 92.5623%
DRC-1; concentration 80; 180'
  % inhibition apPOL 180': 89.3704%
DRC-2; 5'; concentration 10
  % inhibition Apo pol 5': 10%
DRC-2; 40'; concentration 2.5
  % inhibition Apol 40': 10%
DRC-2; 40'; concentration 40
  % inhibition Apol 40': 63%
DRC-2; 40'; concentration 80
  % inhibition Apol 40': 75%
DRC-2; 90'; concentration 2.5
  % inhibition ApPOL 90': 10%
DRC-2; 90'; concentration 40
  % inhibition ApPOL 90': 63%
DRC-2; 180'; concentration 80
  % inhibition apPOL 180': 75%
DRC-2; concentration 2.5; 5'
  % inhibition Apo pol 5': 9%
DRC-2; concentration 2.5; 40'
  % inhibition Apol 40': 10%
DRC-2; concentration 2.5; 90'
  % inhibition ApPOL 90': 10%
DRC-2; concentration 2.5; 180'
  % inhibition apPOL 180': 5%
DRC-2; concentration 5; 5'
  % inhibition Apo pol 5': 16%
DRC-2; concentration 5; 40'
  % inhibition Apol 40': 17%
DRC-2; concentration 5; 90'
  % inhibition ApPOL 90': 15%
DRC-2; concentration 5; 180'
  % inhibition apPOL 180': 8.45%
DRC-2; concentration 10; 5'
  % inhibition Apo pol 5': 10%
DRC-2; concentration 10; 40'
  % inhibition Apol 40': 8.56%
DRC-2; concentration 10; 90'
  % inhibition ApPOL 90': 8%
DRC-2; concentration 10; 180'
  % inhibition apPOL 180': 2.65%
DRC-2; concentration 20; 5'
  % inhibition Apo pol 5': 20%
DRC-2; concentration 20; 40'
  % inhibition Apol 40': 22%
DRC-2; concentration 20; 90'
  % inhibition ApPOL 90': 21%
DRC-2; concentration 20; 180'
  % inhibition apPOL 180': 12%
DRC-2; concentration 40; 5'
  % inhibition Apo pol 5': 54%
DRC-2; concentration 40; 40'
  % inhibition Apol 40': 63%
DRC-2; concentration 40; 90'
  % inhibition ApPOL 90': 63%
DRC-2; concentration 40; 180'
  % inhibition apPOL 180': 56%
DRC-2; concentration 80; 5'
  % inhibition Apo pol 5': 64%
DRC-2; concentration 80; 40'
  % inhibition Apol 40': 75%
DRC-2; concentration 80; 90'
  % inhibition ApPOL 90': 77%
DRC-2; concentration 80; 180'
  % inhibition apPOL 180': 75%
[1]
  DNA Pol: 52
Primary screen value; head prints only 'DNA Pol'; 90 min, 10 µM
  DNA Pol: 52

## Cc1ccc(CCNC(=O)c2cnn3c(O)c(Cc4ccccc4F)c(C)nc23)cc1 [KU0097142]
DRC-1; 10'; concentration 2.5
  % inhibition Apo pol 10': -13.7377%
DRC-1; 10'; concentration 5
  % inhibition Apo pol 10': -17.1874%
DRC-1; 10'; concentration 10
  % inhibition Apo pol 10': -18.6102%
DRC-1; 10'; concentration 20
  % inhibition Apo pol 10': 32.4745%
DRC-1; 10'; concentration 40
  % inhibition Apo pol 10': 80.8586%
DRC-1; 10'; concentration 80
  % inhibition Apo pol 10': 88.0629%
DRC-1; 90'; concentration 2.5
  % inhibition Apol 90': -9.394%
DRC-1; 90'; concentration 5
  % inhibition Apol 90': -5.811%
DRC-1; 90'; concentration 10
  % inhibition Apol 90': -11.7224%
DRC-1; 90'; concentration 20
  % inhibition Apol 90': 36.3215%
DRC-1; 90'; concentration 40
  % inhibition Apol 90': 78.277%
DRC-1; 90'; concentration 80
  % inhibition Apol 90': 85.9002%
DRC-1; 180'; concentration 2.5
  % inhibition apPOL 180': -10.2215%
DRC-1; 180'; concentration 5
  % inhibition apPOL 180': -8.372%
DRC-1; 180'; concentration 10
  % inhibition apPOL 180': -12.5375%
DRC-1; 180'; concentration 20
  % inhibition apPOL 180': 23.0268%
DRC-1; 180'; concentration 40
  % inhibition apPOL 180': 70.309%
DRC-1; 180'; concentration 80
  % inhibition apPOL 180': 81.7781%
DRC-2, 40', concentration 5 (unit not given)
  % inhibition Apol 40': 17%
DRC-2, 40', concentration 40 (unit not given)
  % inhibition Apol 40': 67%
DRC-2, 90', concentration 5 (unit not given)
  % inhibition ApPOL 90': 17%
DRC-2, 90', concentration 40 (unit not given)
  % inhibition ApPOL 90': 67%
DRC-2, 180', concentration 40 (unit not given)
  % inhibition apPOL 180': 62%
DRC-2; 5'; concentration 2.5
  % inhibition Apo pol 5': -3.79%
DRC-2; 5'; concentration 5
  % inhibition Apo pol 5': 11%
DRC-2; 5'; concentration 10
  % inhibition Apo pol 5': 15%
DRC-2; 5'; concentration 20
  % inhibition Apo pol 5': 45%
DRC-2; 5'; concentration 40
  % inhibition Apo pol 5': 57%
DRC-2; 5'; concentration 80
  % inhibition Apo pol 5': 62%
DRC-2; 5'; concentration 80 (unit not given)
  % inhibition Apo pol 5': 62%
DRC-2; 40'; concentration 2.5
  % inhibition Apol 40': -0.896%
DRC-2; 40'; concentration 5
  % inhibition Apol 40': 17%
DRC-2; 40'; concentration 10
  % inhibition Apol 40': 21%
DRC-2; 40'; concentration 20
  % inhibition Apol 40': 54%
DRC-2; 40'; concentration 40
  % inhibition Apol 40': 67%
DRC-2; 40'; concentration 80
  % inhibition Apol 40': 71%
DRC-2; 90'; concentration 2.5
  % inhibition ApPOL 90': -1.26%
DRC-2; 90'; concentration 5
  % inhibition ApPOL 90': 17%
DRC-2; 90'; concentration 10
  % inhibition ApPOL 90': 19%
DRC-2; 90'; concentration 20
  % inhibition ApPOL 90': 52%
DRC-2; 90'; concentration 40
  % inhibition ApPOL 90': 67%
DRC-2; 90'; concentration 80
  % inhibition ApPOL 90': 72%
DRC-2; 180'; concentration 2.5
  % inhibition apPOL 180': -2.35%
DRC-2; 180'; concentration 5
  % inhibition apPOL 180': 12%
DRC-2; 180'; concentration 10
  % inhibition apPOL 180': 13%
DRC-2; 180'; concentration 20
  % inhibition apPOL 180': 43%
DRC-2; 180'; concentration 40
  % inhibition apPOL 180': 62%
DRC-2; 180'; concentration 80
  % inhibition apPOL 180': 69%
[1]
  DNA Pol: 48
Primary screen value, head "DNA Pol", unit not given; 90 min, 10 µM
  DNA Pol: 48
